≈ marks a conversion by molar mass, not a printed value.
Key:
H9 [1] = assay: Inhibitory concentration required to inhibit HIV replication in H9 lymphocytes growth by 50%; assay type: functional, cell-based; conditions: Homo sapiens
[2] = Therapeutic index(TI) was evaluated (IC50/EC50); conditions: read-out: TI
H9 [3] = assay: Inhibitory concentration required to inhibit uninfected H9 lymphocytic cell growth by 50%; assay type: functional, cell-based; conditions: Homo sapiens

| Compound | EC50 (H9 [1]) [µg/mL] | selectivity ratio [2] | IC50 (H9 [3]) [µg/mL] |
| --- | --- | --- | --- |
| COc1cc2c(c3ccccc3n2C)c2c(NCCN(C)C)nccc12 | 0.026 (≈ 0.0746 µM) | 8.9 | 0.23 (≈ 0.66 µM) |
| COc1cc2c(c3ccccc3n2C)c2c(NCCCO)nccc12 | 0.001 (≈ 0.00298 µM) | 153 | 0.15 (≈ 0.447 µM) |
| COc1cc2c(c3ccccc3n2C)c2c(NCCN)nccc12 | 0.022 (≈ 0.0687 µM) | 10.6 | 0.23 (≈ 0.718 µM) |
| COc1cc2c(c3ccccc3n2C)c2c(Cl)nccc12 | 0.19 (≈ 0.64 µM) | 136 | 26 (≈ 87.6 µM) |
| COc1cc2c(c3cnccc13)c1ccccc1n2C | 0.0054 (≈ 0.0206 µM) | 503 | 2.7 (≈ 10.3 µM) |
| COc1cc2c(c3ccccc3n2C)c2c(NCCN3CCCCC3)nccc12 | 0.005 (≈ 0.0129 µM) | 47.9 | 0.24 (≈ 0.618 µM) |
| COc1cc2c(c3cc(O)ccc3n2C)c2c(Cl)nccc12 | 1.4 (≈ 4.48 µM) | 3.6 | 5 (≈ 16 µM) |

Reference: ChEMBL document CHEMBL1132672, “Substituted 7H-pyrido[4,3-c]carbazoles with potent anti-HIV activity” (Bioorg Med Chem Lett, 1999)
